Measurements: patent publication US8399520B2, “Selective estrogen receptor modulator” (Eisai R&D Management Co., Ltd., priority 2002, dated 2013)

What follows are molecules tested against T1, estrogen receptor derived from bovine uterus (Bos taurus, UniProt P49884) (assay: In vitro estrogen receptor binding assay). Conditions: read-out: Estrogen receptor binding affinity: Ki.
T1 construct: estrogen receptor derived from bovine uterus was diluted with the assay buffer solution so that 10 to 20 μg total protein was present; from tissue; host or cells: bovine uterus
T1 sequence (P49884 1-596): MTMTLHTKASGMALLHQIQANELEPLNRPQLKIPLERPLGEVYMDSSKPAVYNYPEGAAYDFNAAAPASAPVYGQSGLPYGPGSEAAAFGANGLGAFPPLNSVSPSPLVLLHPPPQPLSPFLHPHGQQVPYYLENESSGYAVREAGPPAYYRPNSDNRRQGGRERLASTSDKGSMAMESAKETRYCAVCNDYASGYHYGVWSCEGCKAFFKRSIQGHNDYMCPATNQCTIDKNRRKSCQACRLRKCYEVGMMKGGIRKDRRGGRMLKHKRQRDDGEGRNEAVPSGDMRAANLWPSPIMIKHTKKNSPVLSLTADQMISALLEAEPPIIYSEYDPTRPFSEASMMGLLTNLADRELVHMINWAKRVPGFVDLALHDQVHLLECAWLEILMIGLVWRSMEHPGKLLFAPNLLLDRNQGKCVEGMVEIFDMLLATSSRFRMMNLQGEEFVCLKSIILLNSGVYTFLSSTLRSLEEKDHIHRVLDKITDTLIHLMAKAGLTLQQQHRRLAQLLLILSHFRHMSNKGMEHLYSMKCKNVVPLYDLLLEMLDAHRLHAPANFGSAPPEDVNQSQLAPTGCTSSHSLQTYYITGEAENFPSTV
Description: The binding affinity of the compound according to the present invention to estrogen receptor was measured using an in vitro estrogen receptor binding assay. The binding affinity measures the ability of the compound according to the present invention to remove [^3H]-estradiol from estrogen receptor derived from bovine uterus. The following materials were used in this assay: (1) the assay buffer solution was 20 mM Tris/HCl (pH 7.5) containing 1 mM dithiothreitol (DTT), 1 mM EDTA and 10% glycerol; (2) radioactive ligand was [^3H]-estradiol purchased from Amersham Life Science; (3) the cold ligand was diethylstilbestrol purchased from sigma (Sigma); and (4) the estrogen receptor was derived from bovine uterus. The compound to be tested was prepared as a 10% DMSO solution. [^3H]-estradiol was dissolved in the assay buffer solution so as to obtain a final concentration of 1 nM. […] Each plate contains total binding, non-specific binding and the binding which were not inhibited by various concentrations of the compound. The plate was incubated for 1 hour at room temperature. […] These mixtures were centrifuged, and the supernatant thereof was evaluated for its radioactivity using a liquid scintillation counter. Specific binding was calculated by subtracting non-specific binding dpm (counts remaining in the supernatant obtained by centrifugal separation of a reaction mixture containing estrogen receptor derived from bovine uterus, radioactive ligand and excess cold ligand) from the total binding dpm (counts remaining in the supernatant obtained by centrifugal separation of a reaction mixture containing estrogen receptor derived from bovine uterus and radioactive ligand only). The effectiveness of the compound was evaluated by Ki. […] C is the concentration of [^3H]-estradiol in the reaction mixture, and Kd is the [^3H]-estradiol dissociation constant. The Kd was determined by Scatchard analysis. That is to say, various concentrations of [^3H]-estradiol were used to measure the concentration of specifically bound [^3H]-estradiol, which served as the horizontal axis, the value which was obtained by dividing the concentration of specifically bound [^3H]-estradiol by the concentration [^3H]-estradiol not bound to the receptor served as the vertical axis to produce a plot, and the negative value of the inverse of the slope of the resulting straight line was used as Kd.

Structure (SMILES) | Ki [nM]
CCN(Cc1ccc(OCCN2CCCCC2)c(F)c1)c1ccc(F)cc1C1CCc2cc(O)ccc2C1 (centres unmarked) [Example 295, 6-{2-{Ethyl[3-fluoro-4-(2-piperidin-1-ylethoxy)benzyl]amino}-5-fluorophenyl}-5,6,7,8-tetrahydronaphthalen-2-ol] | 17
CCN(Cc1ccc(OCCN2CCCCCC2)cc1)c1cc(O)ccc1C1=Cc2ccc(O)cc2CC1(C)C [Example 311, 6-{2-{[4-(2-Azepan-1-ylethoxy)benzyl]ethylamino}-4-hydroxyphenyl}-7,7-dimethyl-7,8-dihydronaphthalen-2-ol] | 5.1
CCN(Cc1ccc(OC2CC3CCC(C2)N3C)c(F)c1)c1cc(O)ccc1C1CCc2cc(O)ccc2C1 (centres unmarked) [Example 367, 6-{2-{Ethyl[3-fluoro-4-(8-methyl-8-azabicyclo[3.2.1]oct-3-yloxy)benzyl]amino}-4-hydroxyphenyl}-5,6,7,8-tetrahydronaphthalen-2-ol] | 1.8
Oc1ccc2c(c1)CCC(c1ccc(O)cc1NCc1ccc(OCCN3CCCCC3)cc1)=C2 [Example 130, 6-{4-Hydroxy-2-[4-(2-piperidin-1-ylethoxy)benzylamino]phenyl}-7,8-dihydronaphthalen-2-ol] | 8.2
CC(C)(Cc1ccc(O)cc1Oc1ccc(OCCN2CCCCC2)cc1)c1ccc(O)cc1 [Example 776, 4-[2-(4-Hydroxyphenyl)-2-methylpropyl]-3-[4-(2-piperidin-1-ylethoxy)phenoxy]phenol] | 6.3
CCn1ccc2c(O)ccc(C3CCc4cc(O)ccc4C3)c21 (centres unmarked) [Example 55, 1-Ethyl-7-(6-hydroxy-1,2,3,4-tetrahydronaphthalen-2-yl)-1H-indol-4-ol] | 84
CCN(Cc1ccc(OCCN2CCCCCC2)cc1)c1cc(O)ccc1C1CCN(c2cccc(O)c2)C1 (centres unmarked) [Example 329, 3-{[4-(2-Azepan-1-ylethoxy)benzyl]ethylamino}-4-[1-(3-hydroxyphenyl)pyrrolidin-3-yl]phenol] | 94
CN(Cc1ccc(OCCN2CCCCC2)cc1)c1cc(O)ccc1CCc1ccc(O)cc1 [Example 343, 4-[2-(4-Hydroxyphenyl)ethyl]-3-{methyl-[4-(2-piperidin-1-ylethoxy)benzyl]amino}phenol] | 31
ON=C1CCc2cc(-c3ccc(O)cc3Nc3ccc(OCCN4CCCCC4)cc3)ccc21 [Example 327, 5-{4-Hydroxy-2-[4-(2-piperidin-1-ylethoxy)phenylamino]phenyl}indan-1-one oxime] | 42
O=C(c1ccc(OCCN2CCCCC2)cc1)c1cc(O)ccc1-c1ccc2cc(O)ccc2c1 [Example 8, [5-Hydroxy-2-(6-hydroxynaphthalen-2-yl)phenyl][4-(2-piperidin-1-yl-ethoxy)phenyl]methanone] | 0.64
O=c1cccc(C2=Cc3ccc(O)cc3CCC2)n1Cc1ccc(OCCN2CCCCCC2)cc1 [Example 15, 1-[4-(2-Azepan-1-ylethoxy)benzyl]-6-(2-hydroxy-8,9-dihydro-7H-benzocyclohepten-6-yl)-1H-pyridin-2-one] | 60
CC1(C)c2ccc(O)cc2CCC1c1ccc(O)cc1Nc1ccc(OCCN2CCCCC2)c(F)c1 (centres unmarked) [Example 305, 6-{2-[3-Fluoro-4-(2-piperidin-1-ylethoxy)phenylamino]-4-hydroxyphenyl}-5,5-dimethyl-5,6,7,8-tetrahydronaphthalen-2-ol] | 8.6
Oc1ccc(/C=C/c2ccc(O)cc2NCc2ccc(OCCN3CCCCC3)c(F)c2)cc1 [Example 349, 3-[3-Fluoro-4-(2-piperidin-1-ylethoxy)benzylamino]-4-[2-(4-hydroxyphenyl)vinyl]phenol] | 16
CN(Cc1ccc(OCCN2CCCCC2)cc1)c1cc(O)ccc1-c1ccc2cc(O)ccc2c1 [Example 113, 6-{4-Hydroxy-2-{methyl[4-(2-piperidin-1-ylethoxy)benzyl]amino}phenyl}naphthalen-2-ol] | 1.6

The next lines start with the values.

Ki [nM] | Structure (SMILES)
13 | CN(CCc1ccc(O)cc1)c1cc(O)ccc1C1CCc2cc(O)ccc2C1 (centres unmarked) [Example 48, 6-{4-Hydroxy-2-{[2-(4-hydroxyphenyl)ethyl]methylamino}phenyl}-5,6,7,8-tetrahydronaphthalen-2-ol]
8.2 | CC(C)N(CCOc1ccc(CCc2cc(O)ccc2C2CCc3cc(O)ccc3C2)cc1)C(C)C (centres unmarked) [Example 357, 6-{2-{2-[4-(2-Diisopropylaminoethoxy)phenyl]ethyl}-4-hydroxyphenyl}-5,6,7,8-tetrahydronaphthalen-2-ol]
22 | Oc1ccc2c(c1)CCC(c1ccc(O)cc1N1Cc3ccc(OCCN4CCCCC4)cc3C1)C2 (centres unmarked) [Example 338, 6-{4-Hydroxy-2-[5-(2-piperidin-1-ylethoxy)-1,3-dihydroisoindol-2-yl]phenyl}-5,6,7,8-tetrahydronaphthalen-2-ol]
18 | COCCN(Cc1ccc(OCCN2CCCCC2)c(F)c1)c1cc(O)ccc1C1CCc2cc(O)ccc2C1 (centres unmarked) [Example 183, 6-{2-{[3-Fluoro-4-(2-piperidin-1-ylethoxy)benzyl](2-methoxyethyl)amino}-4-hydroxyphenyl}-5,6,7,8-tetrahydronaphthalen-2-ol]
32 | CCN(Cc1ccc(OCCN2CCCCCC2)cc1)c1cccc(C)c1C1CCc2cc(O)ccc2C1 (centres unmarked) [Example 293, 6-{2-{[4-(2-Azepan-1-ylethoxy)benzyl]ethylamino}-6-methylphenyl}-5,6,7,8-tetrahydronaphthalen-2-ol]
32 | CCN(Cc1ccncc1)c1cc(O)ccc1C1CCc2cc(O)ccc2C1 (centres unmarked) [Example 54, 6-{2-[Ethyl(pyridin-4-ylmethyl)amino]-4-hydroxyphenyl}-5,6,7,8-tetrahydronaphthalen-2-ol]
1.2 | CCN(Cc1ccc(OCCN2CCCCC2)c(F)c1)c1cc(O)ccc1[C@@H]1CCc2cc(O)ccc2C1 [188 (R), (R)-6-{2-{ethyl-[3-fluoro-4-(2-piperidin-1-ylethoxy)benzyl]amino}-4-hydroxyphenyl}-5,6,7,8-tetrahydronaphthalen-2-ol]
21 | CCN(CC)c1cc(O)ccc1C1CCc2cc(O)ccc2C1 (centres unmarked) [Example 44, 6-(2-Diethylamino-4-hydroxyphenyl)-5,6,7,8-tetrahydronaphthalen-2-ol]
5 | CCN1CCN(CCOc2ccc(CN(CC)c3cc(O)ccc3C3CCc4cc(O)ccc4C3)cc2)CC1 (centres unmarked) [Example 373, 6-{2-{Ethyl{4-[2-(4-ethylpiperazin-1-yl)ethoxy]benzyl}amino}-4-hydroxyphenyl}-5,6,7,8-tetrahydronaphthalen-2-ol]
47 | Oc1ccc2c(c1)CCN(c1cc(O)ccc1Cc1ccc(OCCN3CCCCC3)cc1)CC2 [Example 21, 3-{5-Hydroxy-2-[4-(2-piperidin-1-ylethoxy)benzyl]phenyl}-2,3,4,5-tetrahydro-1H-benz[d]azepin-7-ol]
18 | OCCN(Cc1ccc(OCCN2CCCCCC2)cc1)c1cc(O)ccc1C1CCc2cc(O)ccc2C1 (centres unmarked) [Example 177, 6-{2-{[4-(2-Azepan-1-ylethoxy)benzyl](2-hydroxyethyl)amino}-4-hydroxyphenyl}-5,6,7,8-tetrahydronaphthalen-2-ol]
9.8 | CCN(Cc1ccc(OCCN2CCCCC2)cc1)c1cc(O)ccc1CC1CCc2cc(O)ccc2C1 (centres unmarked) [Example 791, 6-{2-{Ethyl[4-(2-piperidin-1-ylethoxy)benzyl]amino}-4-hydroxybenzyl}-5,6,7,8-tetrahydronaphthalen-2-ol]
8.4 | CCN(Cc1ccccc1)c1cc(O)ccc1C1CCc2cc(O)ccc2C1 (centres unmarked) [Example 45, 6-[2-(Benzylethylamino)-4-hydroxyphenyl]-5,6,7,8-tetrahydronaphthalen-2-ol]
9 | Oc1ccc2c(c1)CCC(c1ccc(O)cc1N(Cc1ccc(OCCN3CCCCCC3)cc1)CC(F)(F)F)C2 (centres unmarked) [Example 179, 6-{2-{[4-(2-Azepan-1-ylethoxy)benzyl](2,2,2-trifluoroethyl)amino}-4-hydroxyphenyl}-5,6,7,8-tetrahydronaphthalen-2-ol]
13 | CCN(Cc1ccc(OCCN2CCCCCC2)cc1)c1cc(O)ccc1C1CCCc2cc(O)ccc2C1 (centres unmarked) [Example 298, 6-{2-{[4-(2-Azepan-1-ylethoxy)benzyl]ethylamino}-4-hydroxyphenyl}-6,7,8,9-tetrahydro-5H-benzocyclohepten-2-ol]
